In US20230257351A1, “SUBSTITUTED N-[…] HAVING P2X4 RECEPTOR ANTAGONISTIC ACTIVITY” (Bayer Aktiengesellschaft, priority 2020, published 2023):
pIC50: −log10 of the molar value.

How the values were obtained:
human P2X4 = biological target: T1, human P2X4 (Homo sapiens, UniProt Q99571); test: Human P2X4 HEK Cell FLIPR Assay; format: cell-based; details: HEK293 stably expressing human P2X4, agonist Bz-ATP 3 μM (EC80); for pIC50: read-out: Human P2X4 HEK Cells (FLIPR Assay) avg IC50
T1 construct: expressed in transfected cells
T1 sequence (Q99571 1-388): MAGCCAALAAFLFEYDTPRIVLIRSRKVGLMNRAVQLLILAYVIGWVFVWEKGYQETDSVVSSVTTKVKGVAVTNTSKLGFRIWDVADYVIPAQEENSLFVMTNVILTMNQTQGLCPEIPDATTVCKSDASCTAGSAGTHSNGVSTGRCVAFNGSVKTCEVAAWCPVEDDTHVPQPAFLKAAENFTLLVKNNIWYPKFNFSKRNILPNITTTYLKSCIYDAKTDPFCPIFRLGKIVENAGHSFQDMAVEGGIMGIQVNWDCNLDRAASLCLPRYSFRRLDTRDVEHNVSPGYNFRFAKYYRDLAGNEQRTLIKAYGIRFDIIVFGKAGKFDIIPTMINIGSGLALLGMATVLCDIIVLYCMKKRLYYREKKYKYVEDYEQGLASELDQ
How it was run: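 HEK293 cells stably expressing human P2X4 were loaded with Fluo8-AM (30 min, 37 °C, HBSS/HEPES pH 7.4 with probenecid), then preincubated 30 min at room temperature with compound, 25 μM–1 nM final, 0.5% DMSO. Bz-ATP-evoked calcium fluorescence was read on FLIPR; data were normalized to agonist control and given a four-parameter fit for IC50.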

rat P2X4 = biological target: T2, rat P2X4 (Rattus norvegicus, UniProt P51577); test: FLIPR Method for Rat P2X4 1321N1 Astrocytoma Cells; format: cell-based; details: 1321N1 stably expressing rat P2X4; agonist MgATP 5 μM (EC80)
T2 construct: expressed in transfected cells
T2 sequence (P51577 1-388): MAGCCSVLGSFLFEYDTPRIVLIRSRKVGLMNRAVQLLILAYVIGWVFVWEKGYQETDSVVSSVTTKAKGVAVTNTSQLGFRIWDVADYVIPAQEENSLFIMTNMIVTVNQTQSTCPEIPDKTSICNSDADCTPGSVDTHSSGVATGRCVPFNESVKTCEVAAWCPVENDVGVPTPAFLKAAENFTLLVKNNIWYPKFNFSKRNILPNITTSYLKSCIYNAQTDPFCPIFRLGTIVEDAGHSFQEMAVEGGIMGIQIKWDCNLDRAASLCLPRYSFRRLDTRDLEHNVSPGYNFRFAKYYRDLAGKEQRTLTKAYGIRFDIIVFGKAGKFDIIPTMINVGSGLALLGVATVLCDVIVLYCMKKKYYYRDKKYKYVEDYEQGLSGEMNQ
Description: Compounds were tested on a 1321N1 cell line stably expressing rat P2X4. Cells were cultured on collagen-I-coated 384-well plates at a density of 10,000 cells/well and incubated overnight at 37° C., 5% CO2. P2X4 function was assessed by measuring intracellular calcium fluxes caused by Magnesium-ATP (MgATP) using the calcium-chelating dye Fluo8-AM (Molecular Devices) with the Fluorescent Imaging Plate Reader Tetra (FLIPR^Tetra; Molecular Devices CA). On the day of the assay, the medium was removed and the cells were incubated for 30 minutes at 37° C. and 5% CO2 in 30 μl of dye buffer (Hank's balanced salt solution, 10 mM HEPES, 1.8 mM CaCl2, 1 mM MgCl2, 2 mM probenecid, 5 mM D-glucose monohydrate, 5 μM Fluo8-AM, pH=7.4).
Compounds diluted in probenecid buffer (Hank's balanced salt solution, 10 mM HEPES, 1.8 mM CaCl2, 1 mM MgCl2, 2 mM probenecid, 5 mM D-glucose monohydrate, pH=7.4) at ten concentrations ranging from 25 μM to 1 nM (final concentration) were dispensed and incubated for 30 minutes at room temperature. The agonist, MgATP (Sigma-Aldrich Chemie GmbH, DE), was added at a final concentration of 5 μM, representing the EC80 routinely determined. The final assay volume was 50 μl and final DMSO concentration was 0.5%.
The fluorescence intensity reflecting intracellular calcium changes was recorded before and after MgATP addition, at an excitation and emission wavelengths of 470-495 nm and 515-575 nm respectively.
The compounds were tested in triplicates and fluorescence intensity raw data normalized to the agonist control and fitted to the four-parameter logistic equation:
Y=Bottom+(Top−Bottom)/(1+10^((Log IC50−X)*HillSlope))
Assay plate acceptance was based on the signal window (S/B)[…] and the reference compound pIC50 within ±[…] the mean of historic pIC50 of the compound. Failure to meet two of the three criteria determined exclusion of the plate's results. In Table 10 below the results for the assays are reported

Row | Compound | Human P2X4 HEK Cells (FLIPR Assay) avg Efficacy (human P2X4) [%] | pIC50 (human P2X4) | pIC50 (rat P2X4) | Rat P2X4 1321N1 Astrocytoma Cells (FLIPR Assay) avg Efficacy (rat P2X4) [%]
1 | CC(=O)N(c1cccc(C#N)c1)c1cc(NC(=O)Cc2c(F)cccc2Cl)ccn1 [Example 15, N-{4-[2-(2-chloro-6-fluorophenyl)acetamido]pyridin-2-yl}-N-(3-cyanophenyl)acetamide] | 94 | 6.39 | 6.36 | 88
2 | CC(=O)N(c1ccc(F)c(C#N)c1)c1cc(NC(=O)Cc2ccc(F)cc2Cl)ccn1 [Example 22, N-{4-[2-(2-chloro-4-fluorophenyl)acetamido]pyridin-2-yl}-N-(3-cyano-4-fluorophenyl)acetamide] | 98 | 6.32 | 6.66 | 95
3 | CC(=O)N(c1ccc(F)c(C#N)c1)c1cc(NC(=O)Cc2cccc(F)c2Cl)ccn1 [Example 23, N-{4-[2-(2-chloro-3-fluorophenyl)acetamido]pyridin-2-yl}-N-(3-cyano-4-fluorophenyl)acetamide] | 99 | 6.45 | 6.32 | 96
4 | CC(=O)N(c1ccccc1)c1cc(NC(=O)Cc2ccccc2Cl)ccn1 [Example 25, N-{4-[2-(2-chlorophenyl)acetamido]pyridin-2-yl}-N-phenylacetamide] | 100 | 6.28 | 6.07 | 100
5 | CC(=O)N(c1ccccc1)c1cc(NC(=O)Cc2ccc(F)cc2Cl)ccn1 [Example 26, N-{4-[2-(2-chloro-4-fluorophenyl)acetamido]pyridin-2-yl}-N-phenylacetamide] | 102 | 6.18 | 6.19 | 101
6 | CC(=O)N(c1ccc(F)cc1)c1cc(NC(=O)Cc2cccc(C)c2C)ccn1 [Example 29, N-{4-[2-(2,3-dimethylphenyl)acetamido]pyridin-2-yl}-N-(4-fluorophenyl)acetamide] | 91 | 6.41 | 7.03 | 77
7 | CC(=O)N(c1ccc(F)cc1)c1cc(NC(=O)Cc2ccccc2C(F)(F)F)ccn1 [Example 30, N-(4-fluorophenyl)-N-(4-{2-[2-(trifluoromethyl)phenyl]acetamido}pyridin-2-yl)acetamide] | 98 | 6.42 | 6.14 | 96
8 | CC(=O)N(c1ccc(F)cc1)c1cc(NC(=O)Cc2cccc(F)c2C(F)(F)F)ccn1 [Example 32, N-(4-fluorophenyl)-N-(4-{2-[3-fluoro-2-(trifluoromethyl)phenyl]acetamido}pyridin-2-yl)acetamide] | 101 | 6.45 | 6.10 | 100
9 | CC(=O)N(c1ccc(F)cc1)c1cc(NC(=O)Cc2c(Cl)cccc2C#N)ccn1 [Example 33, N-{4-[2-(2-chloro-6-cyanophenyl)acetamido]pyridin-2-yl}-N-(4-fluorophenyl)acetamide] | 93 | 6.14 | 5.81 | 98
10 | CC(=O)N(c1ccc(F)cc1)c1cc(NC(=O)Cc2ccc(F)cc2Cl)ccn1 [Example 37, N-{4-[2-(2-chloro-4-fluorophenyl)acetamido]pyridin-2-yl}-N-(4-fluorophenyl)acetamide] | 95 | 6.05 | 6.62 | 96

Results, then the compound that gave them:

Row | Human P2X4 HEK Cells (FLIPR Assay) avg Efficacy (human P2X4) [%] | pIC50 (human P2X4) | pIC50 (rat P2X4) | Rat P2X4 1321N1 Astrocytoma Cells (FLIPR Assay) avg Efficacy (rat P2X4) [%] | Compound
11 | 100 | 6.61 | 6.70 | 98 | CC(=O)N(c1cccc(C#N)c1)c1cc(NC(=O)Cc2c(Cl)cccc2Cl)ccn1 [Example 14, N-(3-cyanophenyl)-N-{4-[2-(2,6-dichlorophenyl)acetamido]pyridin-2-yl)acetamide]
12 | 91 | 6.46 | 6.43 | 90 | CC(=O)N(c1ccc(F)c(C#N)c1)c1cc(NC(=O)Cc2ccccc2Cl)ccn1 [Example 21, N-{4-[2-(2-chlorophenyl)acetamido]pyridin-2-yl}-N-(3-cyano-4-fluorophenyl)acetamide]
13 | 100 | 6.46 | 6.76 | 99 | CC(=O)N(c1ccc(F)c(C#N)c1)c1cc(NC(=O)Cc2c(Cl)cccc2Cl)ccn1 [Example 24, N-(3-cyano-4-fluorophenyl)-N-{4-[2-(2,6-dichlorophenyl)acetamido]pyridin-2-yl}acetamide]
14 | 97 | 6.62 | 6.19 | 99 | CC(=O)N(c1ccccc1)c1cc(NC(=O)Cc2c(Cl)cccc2Cl)ccn1 [Example 27, N-{4-[2-(2,6-dichlorophenyl)acetamido]pyridin-2-yl}-N-phenylacetamide]
15 | 97 | 6.70 | 6.77 | 94 | CC(=O)N(c1ccc(F)cc1)c1cc(NC(=O)Cc2c(C)cccc2C)ccn1 [Example 34, N-{4-[2-(2,6-dimethylphenyl)acetamido]pyridin-2-yl}-N-(4-fluorophenyl)acetamide]
16 | 91 | 6.69 | 6.54 | 90 | CC(=O)N(c1ccc(F)cc1)c1cc(NC(=O)Cc2ccccc2Cl)ccn1 [Example 36, N-{4-[2-(2-chlorophenyl)acetamido]pyridin-2-yl}-N-(4-fluorophenyl)acetamide]
17 | 96 | 6.63 | 6.87 | 98 | CC(=O)N(c1ccc(F)cc1)c1cc(NC(=O)Cc2c(Cl)cccc2Cl)ccn1 [Example 38, N-{4-[2-(2,6-dichlorophenyl)acetamido]pyridin-2-yl}-N-(4-fluorophenyl)acetamide]
18 | 100 | 6.47 | 6.82 | 98 | CC(=O)N(c1ccc(F)cc1)c1cc(NC(=O)Cc2c(Cl)cc(F)cc2Cl)ccn1 [Example 39, N-{4-[2-(2,6-dichloro-4-fluorophenyl)acetamido]pyridin-2-yl}-N-(4-fluorophenyl)acetamide]
19 | 90 | 6.51 | 6.71 | 75 | CC(=O)N(c1ccc(F)cc1)c1cc(NC(=O)Cc2c(F)cccc2Cl)ccn1 [Example 40, N-{4-[2-(2-chloro-6-fluorophenyl)acetamido]pyridin-2-yl}-N-(4-fluorophenyl)acetamide]
